In ChEMBL document CHEMBL5291721, “A preclinical secondary pharmacology resource illuminates target-adverse drug reaction associations of marketed drugs” (Nat Commun, 2023):

Key:
Histamine H1 receptor [1] = biological target: T1, Histamine H1 receptor (Homo sapiens, UniProt P35367); format: functional, cell-based
Histamine H1 receptor [2] = biological target: T1, Histamine H1 receptor; format: functional, cell-based; remark: listed apart in the source
[3] = biological target: T2, Muscarinic acetylcholine receptor M1 (Homo sapiens, UniProt P11229)
T2 sequence (P11229 whole entry): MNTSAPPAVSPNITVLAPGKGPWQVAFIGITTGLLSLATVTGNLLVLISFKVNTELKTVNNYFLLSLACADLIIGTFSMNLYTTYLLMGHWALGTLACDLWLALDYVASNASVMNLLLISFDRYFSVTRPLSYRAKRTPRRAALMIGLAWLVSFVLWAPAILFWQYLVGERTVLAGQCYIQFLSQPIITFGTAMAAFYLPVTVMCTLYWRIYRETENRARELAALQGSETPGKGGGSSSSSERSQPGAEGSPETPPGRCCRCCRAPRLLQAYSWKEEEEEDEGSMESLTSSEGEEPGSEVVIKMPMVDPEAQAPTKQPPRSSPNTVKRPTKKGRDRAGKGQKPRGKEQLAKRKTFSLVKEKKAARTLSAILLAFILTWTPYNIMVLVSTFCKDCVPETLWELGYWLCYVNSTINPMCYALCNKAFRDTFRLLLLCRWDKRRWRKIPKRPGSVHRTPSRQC

[4] = biological target: T2, Muscarinic acetylcholine receptor M1; format: functional, cell-based
[5] = biological target: T2, Muscarinic acetylcholine receptor M1; format: functional, cell-based; remark: listed apart in the source
[6] = biological target: T3, Prostaglandin G/H synthase 1 (Rattus norvegicus, UniProt Q63921); format: functional
T3 sequence (Q63921 whole entry): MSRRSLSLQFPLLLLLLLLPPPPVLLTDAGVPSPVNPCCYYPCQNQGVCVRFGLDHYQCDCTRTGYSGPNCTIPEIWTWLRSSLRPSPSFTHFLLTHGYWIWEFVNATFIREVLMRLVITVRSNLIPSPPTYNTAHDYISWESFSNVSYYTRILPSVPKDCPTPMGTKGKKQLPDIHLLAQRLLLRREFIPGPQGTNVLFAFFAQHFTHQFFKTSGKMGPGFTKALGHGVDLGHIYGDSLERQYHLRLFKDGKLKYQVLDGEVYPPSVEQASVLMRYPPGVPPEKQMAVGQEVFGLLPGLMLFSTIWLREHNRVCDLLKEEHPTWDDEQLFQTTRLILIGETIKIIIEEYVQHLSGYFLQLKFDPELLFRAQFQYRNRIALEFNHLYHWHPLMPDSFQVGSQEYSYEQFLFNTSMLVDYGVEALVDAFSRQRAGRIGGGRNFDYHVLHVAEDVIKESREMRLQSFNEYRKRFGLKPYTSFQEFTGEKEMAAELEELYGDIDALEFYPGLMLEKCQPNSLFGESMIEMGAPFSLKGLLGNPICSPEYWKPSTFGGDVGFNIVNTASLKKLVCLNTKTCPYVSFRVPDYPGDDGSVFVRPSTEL

[7] = biological target: T4, Type-1 angiotensin II receptor (Homo sapiens, UniProt P30556)
T4 sequence (P30556 whole entry): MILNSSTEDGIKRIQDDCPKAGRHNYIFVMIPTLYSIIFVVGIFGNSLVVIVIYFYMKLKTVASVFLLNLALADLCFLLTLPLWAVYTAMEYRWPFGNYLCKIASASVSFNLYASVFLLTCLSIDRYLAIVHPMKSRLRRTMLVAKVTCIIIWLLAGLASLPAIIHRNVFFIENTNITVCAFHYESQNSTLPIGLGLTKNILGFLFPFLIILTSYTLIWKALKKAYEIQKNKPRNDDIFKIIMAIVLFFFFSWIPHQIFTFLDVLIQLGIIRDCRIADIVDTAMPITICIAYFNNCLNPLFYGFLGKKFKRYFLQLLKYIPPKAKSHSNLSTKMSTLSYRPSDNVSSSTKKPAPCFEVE

[8] = biological target: T5, Type-2 angiotensin II receptor (Homo sapiens, UniProt P50052); format: functional
T5 sequence (P50052 whole entry): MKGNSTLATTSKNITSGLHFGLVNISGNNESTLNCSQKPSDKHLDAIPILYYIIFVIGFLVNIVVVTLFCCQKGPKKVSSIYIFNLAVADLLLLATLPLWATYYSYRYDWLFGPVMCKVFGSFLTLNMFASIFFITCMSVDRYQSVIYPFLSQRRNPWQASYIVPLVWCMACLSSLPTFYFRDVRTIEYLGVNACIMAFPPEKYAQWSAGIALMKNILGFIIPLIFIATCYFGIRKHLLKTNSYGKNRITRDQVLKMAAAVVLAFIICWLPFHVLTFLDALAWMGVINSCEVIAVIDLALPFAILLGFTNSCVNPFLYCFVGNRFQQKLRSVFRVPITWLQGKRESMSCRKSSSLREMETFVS
Note: assay procedure not described here.

T1 sequence (P35367 whole entry): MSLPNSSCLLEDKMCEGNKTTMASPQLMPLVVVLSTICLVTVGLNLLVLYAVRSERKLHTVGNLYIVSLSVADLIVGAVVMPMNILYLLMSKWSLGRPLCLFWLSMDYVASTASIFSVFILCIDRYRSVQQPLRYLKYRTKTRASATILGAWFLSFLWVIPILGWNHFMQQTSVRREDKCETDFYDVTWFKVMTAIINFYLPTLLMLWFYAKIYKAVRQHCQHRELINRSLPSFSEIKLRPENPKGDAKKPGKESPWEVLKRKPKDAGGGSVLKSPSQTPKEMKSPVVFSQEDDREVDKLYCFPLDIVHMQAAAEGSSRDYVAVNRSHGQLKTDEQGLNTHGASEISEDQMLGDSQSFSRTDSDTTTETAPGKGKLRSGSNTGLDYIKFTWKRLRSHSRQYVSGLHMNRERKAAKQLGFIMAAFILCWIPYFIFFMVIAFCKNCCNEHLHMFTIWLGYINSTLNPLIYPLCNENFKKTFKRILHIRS

Nc1nc(NC2CC2)c2ncn([C@H]3C=C[C@@H](CO)C3)c2n1 [ABACAVIR]
AC50 (Histamine H1 receptor [1]): > 30 µM | AC50 (Histamine H1 receptor [2]): > 30 µM

CCc1oc2ccccc2c1C(=O)c1cc(I)c(O)c(I)c1 [BENZIODARONE]
AC50 [3]: > 30 µM

O=C(O[C@H]1C[C@H]2CC[C@@H](C1)[N+]21CCCC1)C(O)(c1ccccc1)c1ccccc1 [TROSPIUM]
AC50 [4]: 0.0027 µM | AC50 [5]: > 30 µM | AC50 [6]: > 30 µM

O=C(OCC(O)CO)c1ccccc1Nc1ccnc2cc(Cl)ccc12 (stereo not drawn) [GLAFENINE]
AC50 [7]: > 100 µM

C1CCC(C(CC2CCCCN2)C2CCCCC2)CC1 (stereo not drawn) [PERHEXILINE]
AC50 [8]: > 100 µM
